Results reported in ChEMBL document CHEMBL1138663, “Synthesis and aromatase inhibitory activity of novel pyridine-containing isoflavones” (J Med Chem, 2004).
pKi: −log10 of the molar value.

Biological target: T1, Aromatase (Homo sapiens, UniProt P11511)
T1 sequence (P11511 whole entry): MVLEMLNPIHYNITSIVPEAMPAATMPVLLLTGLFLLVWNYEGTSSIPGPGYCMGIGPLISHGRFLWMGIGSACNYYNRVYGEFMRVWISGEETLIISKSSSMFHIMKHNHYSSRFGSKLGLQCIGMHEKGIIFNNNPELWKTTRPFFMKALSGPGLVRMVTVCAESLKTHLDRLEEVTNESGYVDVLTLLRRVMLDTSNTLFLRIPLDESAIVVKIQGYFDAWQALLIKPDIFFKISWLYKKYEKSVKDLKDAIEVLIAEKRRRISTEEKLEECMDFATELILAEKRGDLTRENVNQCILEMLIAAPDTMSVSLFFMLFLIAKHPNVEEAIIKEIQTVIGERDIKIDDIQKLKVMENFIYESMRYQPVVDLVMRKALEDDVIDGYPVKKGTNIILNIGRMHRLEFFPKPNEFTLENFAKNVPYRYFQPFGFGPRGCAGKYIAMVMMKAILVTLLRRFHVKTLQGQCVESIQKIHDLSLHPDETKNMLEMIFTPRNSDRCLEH

O=c1c(-c2ccc(O)cc2)coc2cc(O)cc(O)c12 [GENISTEIN] was tested, and the pKi was 3.91.
